Values quoted from earlier work as cited in US20250144314A1, “VITAMIN K1 INJECTION DEVICE KIT” (ORBICULAR PHARMACEUTICAL TECHNOLOGIES PRIVATE LIMITED, priority 2022, published 2025).

Details: estimate

## CC1=C(C/C=C(\C)CCC[C@H](C)CCC[C@H](C)CCCC(C)C)C(=O)c2ccccc2C1=O [vitamin K, Phytonadione]
  absorbed vitamin K excreted from the body: over 60%
